The record followed here is patent publication US20240415851A1, “REMODILINS TO PREVENT OR TREAT CANCER METASTASIS, GLAUCOMA, AND HYPOXIA” (The University of Chicago, priority 2019, published 2024).

The test system of one series is TM cells. Description: Contractile force of TM cells (Fourier-Transform Traction Microscopy). Type of series: cell-based, human. Particulars: treatment alone, 1 hr, vs DMSO; dose dependent. The protocol: (§1) TM cells were cultured in 6-well plates and serum-deprived for one day before drug treatment. Cells were treated with prostaglandin E2 (PGE2, 1 μM), remodilin [3 μM] or vehicle control (dimethyl sulfoxide, DMSO) together with human recombinant TGF-β2 [5 ng/ml] for 48 hours. PGE2 was chosen as a positive control due to its known anti-fibrogenic effects. […] The effect of remodilin treatment alone on cellular contractile force in TM cells was examined. The effects of remodilin treatment using “force response ratio” which is a normalized average contractile force compared to baseline, was examined. Average contractile force was measured using Fourier-Transform Traction Microscopy. After 1 hr treatment, compared to DMSO, remodilins reduced average contractile force of TM cells in a dose dependent manner. […] Therefore, remodilins may change structural compositions and mechanical properties of TM and therefore, may help increase outflow facility in glaucomatous eyes with elevated TGF-β2 level.

For series [1], the system named is human primary Schlemm's canal endothelial cells. Description: Fibronectin expression in TGF-β2 treated SC cells. It counts as cell-based. Particulars: TGFβ2 2.5 ng/mL 48 hr; remodilin 3 or 10 μM; vs DMSO. The method, then:
(§2) FIGS. 11A-11C Anti-fibrogenic effects of remodilins 50, 73, and 82 in human primary Schlemm's canal endothelial cells.
Remodilins' effect on SC cells, another key cell type in conventional outflow pathway, was examined. As described above, TGF-β2 also promotes pro-fibrogenic activation in SC cells and such activation accompanies elevation of cell contraction. Protein expression in TGF-β2 treated SC cells was examined first. SC cells from two different donors were cultured in 6-well plates and serum-deprived for 1 day before drug treatment. Cells were treated with Remodilin [3 or 10 μM] or DMSO together with human recombinant TGF-2 [2.5 ng/ml] for 48 hours.

The test system is the same in series [2]. Nature of the series: Contractile force of SC cells (Fourier-Transform Traction Microscopy). It counts as cell-based. Particulars: vs DMSO; for elevation of cellular contractile force in TGFβ2 treated SC cells: TGFβ2 2.5 ng/mL 48 hr, dose-dependent; for cellular contractile force of SC cells, remodilin alone: treatment alone, 1 hr, dose dependent. The protocol:
as §2
Remodilins' effect on elevation of SC cell contraction by TGF-β2 treatment was then examined. Cellular contractile force was measured using Fourier-Transform Traction Microscopy. Compared to no treatment, TGF-β2 treatment elevated average cellular contractile force by almost seven-fold. […] Then, the effect of remodilin treatment alone on cellular contractile force in SC cells was investigated. After 1 hr treatment, compared to DMSO, remodilins reduced cellular contractile force in a dose dependent manner (FIG. 11C). […] Taken together, the anti-fibrogenic effects and relaxation effects of remodilins could be beneficial to reduce outflow resistance potentially through promoting pore formation in SC inner wall.

Series [3] relates to human primary trabecular meshwork cells. Nature of the series: α-SMA expression in TGF-β2 treated TM cells. It counts as cell-based. Particulars: TGFβ2 5 ng/mL 48 hr; remodilin 3 μM, PGE2 1 μM; vs DMSO. The method, then:
FIG. 9 Anti-fibrogenic effects of remodilin 50 in human primary trabecular meshwork cells.
as §1

For series [4], the system named is human lung-derived fibroblasts. Description: TGFβ-induced myofibroblast transformation (ACTA2, FN1 protein expression). It counts as cell-based. The settings on record: 1 ng/mL TGFβ1; 0, 1, 3, or 10 μM remodilin for 2 d; dose-dependent. The protocol: FIG. 1 Remodilins inhibit myofibroblast transformation (MFT). Serum deprived human lung-derived fibroblasts were treated with 1 ng/mL TGFβ1 (or not, left lane) and 0, 1, 3, or 10 μM remodilin for 2 d. Four remodilins each inhibited smooth muscle α-actin (ACTA2) or fibronectin-1 (FN1) protein expression (markers of MFT).

In series [5] the test system is Smad-dependent transcription. Nature of the series: TGFβ-stimulated Smad-dependent transcription (SBE-Luc reporter). It counts as cell-based. The settings on record: human lung fibroblasts; 10 μM. The method, then:
(§3) FIG. 2 Signaling pathway targeted by remodilins. Schematic diagram (center) of signaling from TGFβ to (SRF); red proteins are some, but not all, potential targets. TGFβ stimulates Smad-dependent transcription in human lung fibroblasts that is unchanged by 10 μM remodilin 4 (left), but TGFβ-stimulated SRF-dependent transcription is inhibited by the remodilin (right). SBE—Smad binding element; Luc—luciferase; TK-RL—constitutively active thymidine kinase promoter-driven renilla luciferase (used to control for transfection efficiency).
(§4) In cultured human lung fibroblasts, remodilins act downstream of Smad signaling, which remains intact, though TGFβ-induced SRF activation is blocked (FIG. 2); SRF is necessary for expression of smooth muscle α-actin and other contractile proteins. Remodilins also suppress TGFβ-induced HIF1α expression in human lung fibroblasts and HIF1α-stimulated pathways in human airway myocytes.

For series [6], the system named is SRF-dependent transcription. Nature of the series: TGFβ-stimulated SRF-dependent transcription (luciferase reporter). Type of series: cell-based. Particulars: human lung fibroblasts; 10 μM. The method, then: as §3, §4
Series [7] is described as follows: In vivo PK and oral bioavailability, single dose. The settings on record: mouse, plasma, wild-type mice, 10 mg/kg single dose. The protocol:
(§5) The in vivo bioavailability, plasma half-life, Cmax, and area under the curve (AUC) were determined after administration of single 10 mg/kg doses of remodilins 39 and 83 to mice (Table 1). Selected tissue concentrations of remodilins 39 and 83 after single oral doses of 10 or 50 mg/kg (FIG. 6). The PK properties of these remodilins differ substantially.

Series [8] deals with MDA-MB-231 cells. Description: Spheroid invasion into collagen gels. Type of series: cell-based, human. Particulars: 10 µM remodilin; 48 hrs; collagen 2 mg/mL; DMEM 0.5% FBS; vs 0.1% DMSO. The method, then:
FIG. 3 MDA-MB-231 cells were grown into spheroids, then allowed to migrate into collagen gels in DMEM containing 0.5% FBS and remodilin (10 µM remodilin 39 [top row] or remodilin 83 [bottom row]) or diluent (0.1% DMSO) for 48 hrs (representative 48 hr images shown).
(§6) Remodilins 39 and 83 each slowed the invasion of triple negative MDA-MB-231 human breast cancer cells from spheroids into a surrounding collagen gel (FIG. 3), and also slowed the serum-directed invasion MDA-MB-231-derived BM1 cells through Matrigel-coated transwells (FIG. 4). Remodilins 39 and 83 also slowed the migration of MDA-MB-231 cells in a scratch wound healing assay (FIG. 5).

Series [9] can be described thus: Tissue and plasma concentrations after single oral doses. It counts as in vivo. Particulars: mice; single oral doses of 10 or 50 mg/kg (FIG. 6). The protocol: FIG. 6 Tissue and plasma remodilin concentrations after single oral doses (filled circles 50 mg/kg; open circles-10 mg/kg). […] The greater oral bioavailability, longer half-life, and inter-tissue variation of remodilin 83 concentration are readily evident. Mean+SEM shown; n=3/condition.
as §5
PK was re-evaluated after 14 days of intraperitoneal (IP) or oral BID dosing. […] Plasma levels after single or 15 consecutive once-daily IP 10 mg/kg doses of remodilin 39 were examined (FIG. 8). The plasma concentration of 10 μM remodilin 39 corresponds to 5314 ng/mL.

Series [10] relates to MDA-MB-231-derived BM1 cells. Description: 10% FBS-directed invasion through Matrigel-coated transwell membrane. It counts as cell-based, human. The settings on record: dose-dependent; n=3/condition.
Source text: FIG. 4 Remodilins 39 and 83 inhibited 10% FBS-directed invasion migration of MDA-MB-231-derived BM1 cells through a Matrigel-coated transwell mem-brane, in a dose-dependent fashion. Mean+SEM shown; n=3/condition. **P<0.01; ***P<0.001; ****P<0.0001.
as §6

In series [11] the test system is HIF1α. Nature of the series: Hypoxia-induced HIF1α accumulation in HEK293 cells. Type of series: cell-based. Particulars: 6 hrs steady hypoxia (1% oxygen); 3 μM or 10 µM. The source says: FIG. 12A-12B Remodilins inhibit accumulation of hypoxia-inducible factor-1 alpha (HIF1α) protein. FIG. 12A Effect of remodilin 83 on TGFβ-induced phosphorylation of AKT and ERK1/2 and TGFβ-induced HIF1α accumulation in human fibroblasts. FIG. 12B Both remodilins 39 and 83 inhibited HIF1α accumulation in HEK293 cells exposed to 6 hrs of hypoxia (1% 02).
The influence of remodilin 83 on HIF-1α accumulation in TGFβ-treated fibroblasts was examined. […] Similarly, both remodilins 39 and 83 inhibited HIF1α accumulation in HEK293 cells exposed to 6 hrs of hypoxia (1% O2; FIG. 12B). […] N—normoxia; H—hypoxia.

The nature of series [12]: Lipophilicity and dissolution in vehicles. It counts as physicochemical. The protocol: In the experiments corresponding to FIG. 7, remodilin 83 was dissolved in 20% Solutol in PBS.
Series [13] relates to MDA-MB-231 cells. Description: Alamar blue assay (growth inhibition, cytotoxicity). It counts as cell-based, human. The settings on record: concentrations to at least 10 uM.
Series [14] relates to MDA-MB-231 cells. Description: Scratch wound healing migration assay. It counts as cell-based, human. Particulars: dose-dependent; 1, 3, 10 uM; n=8 wells/condition. The method, then: Mean+SD shown; n=8 wells/condition. P<0.0001 for 1, 3, & 10 uM remodilin 39 vs DMSO (control) by 2-way ANOVA/Dunnett's.
as §6

Series [15] relates to HIF1α. Description: Hypoxia-induced HIF1α accumulation in HEK293T cells (Western blot). Type of series: cell-based. Particulars: 6 hrs steady hypoxia; 3 or 10 μM. The source says:
FIG. 14A-14B Remodilins' effects on hypoxia-induced accumulation of HIF1α. […] FIG. 14B HIF1α was absent in cells ex-posed to 6 hrs normoxia (N).
OSA is a chronic, morbid disease affecting about 10% of the adult population, in which frequent episodes of upper airway collapse obstruct inspiratory airflow and cause IH. These episodes of IH disrupt sleep but perhaps more importantly accelerate multiple cardiometabolic abnormalities, including systemic hypertension, cardiovascular disease, stroke, and abnormal glucose metabolism. Therefore, remodilins were examined for their ability on inhibit hypoxia-induced accumulation of HIF1α, a transcription factor that mediates many of the adverse responses to IH.

Molecules are shown by their SMILES.

`CCC1CCCCN1S(=O)(=O)c1ccc(NC(=O)c2ccc(OC)c(I)c2)cc1` (stereo not drawn) [Remodilin 82, N-(4-((2-ethylpiperidin-1-yl)sulfonyl)phenyl)-3-iodo-4-methoxybenzamide]: in the series on TM cells, the “average contractile force of TM cells (force response ratio)” value is “induced relaxation in TM cells”. Further, the “fibronectin expression in TGFβ2 treated SC cells” value (“fibronectin expression” for short) in series [1] is on record as “inhibited fibronectin expression”. In series [2], the “elevation of cellular contractile force in TGFβ2 treated SC cells” value (shortened to “elevation of cellular contractile force”) is recorded as “inhibited the elevation of cellular contractile force” and the “cellular contractile force of SC cells, remodilin alone” value (“cellular contractile force of SC cells” for short) is given as “induced relaxation in SC cells”.

As to `CC1CCCCN1S(=O)(=O)c1ccc(NC(=O)c2ccc(Br)c(I)c2)cc1` (stereo not drawn) [Remodilin 73, 4-Bromo-3-iodo-N-(4-((2-methylpiperidin-1-yl)sulfonyl)phenyl)benzamide], the “fibronectin expression” value in series [1] is “inhibited fibronectin expression”. In addition, in [2], the “elevation of cellular contractile force” value is “inhibited the elevation of cellular contractile force” and the “cellular contractile force of SC cells” value was “induced relaxation in SC cells”.

With `CCCCC[C@H](O)/C=C/[C@H]1[C@H](O)CC(=O)[C@@H]1C/C=C\CCCC(=O)O` [PGE2, prostaglandin E2, reference compound], in series [3], the “α-SMA expression induced by TGF-β2 in TM cells” value was “inhibited α-SMA expression”.

On to `O=C(Nc1ccc(S(=O)(=O)N2CCCC2)cc1)c1ccc(Br)c(I)c1` [Remodilin 50, 4-Bromo-3-iodo-N-(4-(pyrrolidin-1-ylsulfonyl)phenyl)benzamide], for which the “average contractile force of TM cells (force response ratio)” value with TM cells is “induced relaxation in TM cells”. The “α-SMA expression induced by TGF-β2 in TM cells” value in series [3] is recorded as “inhibited alpha smooth muscle actin expression”. For the same compound, in series [1], the “fibronectin expression” value was “inhibited fibronectin expression”. The “TGFβ-stimulated transformation of human lung-derived fibroblasts to myofibroblast phenotype (ACTA2 or FN1 protein expression)” value (“TGFβ-stimulated transformation” for short) in [4] is on record as “blunt TGFβ-stimulated transformation”. In addition, in series [2], the “elevation of cellular contractile force” value was “inhibited the elevation of cellular contractile force” and the “cellular contractile force of SC cells” value was “induced relaxation in SC cells”.

In the case of `CCN(CC)S(=O)(=O)c1ccc(NC(=O)c2ccc(OC)c(I)c2)cc1` [Remodilin 4, N-(4-(N,N-diethylsulfamoyl)phenyl)-3-iodo-4-methoxybenzamide], the “TGFβ-stimulated Smad-dependent transcription” value in [5] is “unchanged”. Besides, in series [6], the “TGFβ-stimulated SRF-dependent transcription” value is on record as “inhibited”. Besides, in series [4], the “TGFβ-stimulated transformation” value is “blunt TGFβ-stimulated transformation”.

Take `COc1ccc(C(=O)Nc2ccc(S(=O)(=O)N3CCCCC3C)cc2)cc1I` (stereo not drawn) [Remodilin 39, 3-Iodo-4-methoxy-N-(4-((2-methylpiperidin-1-yl)sulfonyl)phenyl)benzamide]: in series [7] (po), the bioavailability turned out to be 4%. Moreover, in series [7], the AUC was 224 ng·h/mL, the highest level (Cmax) was 240 nM and the half-life is 1.3 h. In addition, the “invasion of MDA-MB-231 cells from spheroids into collagen gels” value in the series with MDA-MB-231 cells [8] was “inhibited invasion”. The tissue distribution entry in [9] is on record as “distributed much more uniformly across tissues”. Moreover, the “10% FBS-directed invasion migration of BM1 cells through Matrigel-coated transwell membrane” value in series [10] was “inhibited”. In the series on HIF1α [11], the “HIF1α accumulation in HEK293 cells exposed to hypoxia” value is reported as “blunted HIF1α accumulation substantially”. Besides, in series [12], the “lipophilicity / lipid solubility” value was “highly lipid soluble”. In addition, in the series on MDA-MB-231 cells [13], the “growth inhibition or cytotoxicity by Alamar blue assay” value is “Neither remodilin is growth-inhibitory or cytotoxic”. The “migration of confluent MDA-MB-231 cells into circular scratch wound” value with MDA-MB-231 cells [14] was “inhibited migration”. Moreover, the “TGFβ-stimulated transformation” value in series [4] is reported as “blunt TGFβ-stimulated transformation”. In the series on HIF1α [15], the “HIF1α accumulation in HEK293T cells exposed to hypoxia” value was “inhibit the accumulation of HIF1α”.
